Like-named read-outs stand apart in the source and are kept apart here.
Legend:
[1] = test system: Colon Cancer Cells Colo 205; assay: MTS cell viability assay; conditions: Colo 205, drug alone
Experimental: (§2) Cells were maintained at 37° C. in a humidified atmosphere including 5% CO2. […] Drugs were dissolved in 100% DMSO and then diluted in medium for experiments.

[2] = test system: human lung cancer A549
[3] = test system: Colon Cancer Cells HCT-15; assay: MTS cell viability assay; conditions: combinations with Elemene 160 μg/ml, n = 8
Experimental: as §2

[4] = test system: human colon cancer HCT-8
[5] = test system: BEL-7402 cells; conditions: BEL-7402 cells after 6 weeks of induction with Elemene at 48.9 ug/ml; cited from earlier work
[6] = test system: human glioma SHG44 (xenograph in brain); assay: Tumor xenographed in mice brain, survival; type: in vivo, nude mice; conditions: for Survival time as % of control (T/C): compared to control
Experimental: Mice model with tumor xenographed in mice brain: Glioma cell line G-422 or SHG44 (log phase) were diluted to 2×10^7/ml in cell culture hood (no bacteria environment). Each mouse was injected with 0.05 ml of tumor cell in its brain. […] The survival time of these mice was recorded in the next 30 days. The life extension was calculated using the following formula: Life Extension Rate=[( […])/Average survival days of control group[×100 Results: […]

[7] = test system: Colon Cancer Cells Caco-2; assay: MTS cell viability assay; type: cell-based, human; conditions: combinations with Elemene 100 μg/ml, n = 8
Experimental: as §2

[8] = test system: H-460 lung cancer; assay: MTT survival assay; type: cell-based, human; conditions: 2 × 10^4 cells/ml
Experimental: (§3) The MTT assay is a commonly used method in evaluation of cell survival, based on the ability of viable cells to convert MTT, a soluble tetrazolium salt [3-(4,5-dimethylthuazole-2-yl)-2,5 diphenyl tetrazolium bromide], into an insoluble formazan precipitate, which is quantitated by spectrophotometry following solubilization in dimethyl sulfoxide (DMSO).
(§4) The cells were then solubilized in 125 μl of DMSO and absorbance readings were taken using a 96-well Opsys MRI Microplate Reader (ThermoLabsystems; Chantilly, Va.). The amount of MTT dye reduction was calculated based on the difference between absorbance at 570 nm and at 630 nm. Cell viability in treated cells was expressed as the amount of dye reduction relative to that of untreated control cells. The wells which contained only medium and 10 μl of MTT were used as blanks for the plate reader. Three sets of experiments were performed in 8-12 wells for each treatment.
In brief, carcinoma cells treated with test articles alone, in 96-well tissue culture dishes were incubated with MTT (2 μg/ml) for 4 h. The cells were then solubilized in 125 μl of DMSO and absorbance readings were taken using a 96-well Opsys MRI Microplate Reader (ThermoLabsystems; Chantilly, Va.). The amount of MTT dye reduction was calculated based on the difference between absorbance at 570 nm and at 630 nm. Cell viability in treated cells was expressed as the amount of dye reduction relative to that of untreated control cells. The wells that contained only medium and 10 μl of MTT were used as blanks for the plate reader.
(§5) The cells were then solubilized in 125 μl of DMSO and absorbance readings were taken using a 96-well Opsys MRI Microplate Reader (ThermoLabsystems; Chantilly, Va.). The amount of MTT dye reduction was calculated based on the difference between absorbance at 570 nm and at 630 nm. Cell viability in treated cells was expressed as the amount of dye reduction relative to that of untreated control cells. The wells which contained only medium and 10 μI of MTT were used as blanks for the plate reader. Three sets of experiments were performed in 8-12 wells for each treatment.

[9] = test system: A-172 brain tumor; assay: MTT survival assay; type: cell-based, human; conditions: A172, 72 h
Experimental: as §3, §4, §5

[10] = test system: human glioma SHG-44G (xenograph under skin); assay: Xenograph under skin, injection directly into tumor; type: in vivo, nude mice; conditions: for Tumor Weight X ± SD: in g (unit assumed)
Description: (§1) The mice were killed after 3 weeks.
Nude mice grew on the cengliu rack.

[11] = test system: Colon Cancer Cells HCT-116; assay: MTS cell viability assay; type: cell-based, human; conditions: combinations with Elemene 160 μg/ml, n = 8
[12] = Chronic toxicity study, 28 days i.p.; type: in vivo; conditions: rats
Experimental: In the Rat study, three groups of rats (n=20 per group, half male and half female) were given (i.p.) 7.5, 15, or 30 mg/kg/d of β-Elemene for 28 days consecutively. […] Ascites were not completely absorbed during 4 weeks without drug intake. […] The accumulated toxicity of β-Elemene (via i.p.) was not severe, except irritation at local injection site. The safe dose was 7.5 mg/kg/d.

[13] = test system: human liver cancer QGY
[14] = test system: human glioma G-422 (xenograph under skin); assay: Xenograph under skin, injection directly into tumor; type: in vivo, mice; conditions: for Tumor Weight X ± SD: in g (unit assumed)
Description: as §1

[15] = test system: human prostate cancer PC-3M
[16] = Chronic toxicity study, 28 days i.v.; type: in vivo; conditions: Beagle dogs
[17] = test system: human glioma cells; assay: MTT assay, elemene analogs; type: cell-based
Experimental: as §3, §4

[18] = 25 mg/kg/time iv × 10 bid, listed as β-Elemene

## (−)-Beta-elemene
[1]; Time 4 hr, n = 8
  IC50: 144 ± 10.4 mg/L
[1]; Time 4 hr/24 hr × 2, n = 8
  IC50: 82.3 ± 7.11 mg/L
[1]; Time 4 hr/24 hr × 3, n = 8
  IC50: 56.7 ± 12.6 mg/L
[1]; Time 4 hr/24 hr, n = 8
  IC50: 96.3 ± 11.1 mg/L
[1]; Time 8 hr, n = 8
  IC50: 116 ± 4.00 mg/L
[1]; Time 12 hr, n = 8
  IC50: 110 ± 9.51 mg/L
[1]; Time 24 hr, n = 8
  IC50: 83.0 ± 13.7 mg/L
[1]; Time 48 hr, n = 8
  IC50: 75.3 ± 5.04 mg/L
[1]; Time 72 hr, n = 8
  IC50: 77.7 ± 14.2 mg/L
[2]; 12.5 mg/kg/time iv × 10 bid
  Inhibition Rate %: 31.28%
  Tumor Weight (g) X ± SD: 1.34 ± 0.10 g
[2]; 25 mg/kg/time iv × 10 bid
  Tumor Weight (g) X ± SD: 1.17 ± 0.09 g
[2]; [18]
  Inhibition Rate %: 40.0%
[2]; 50 mg/kg/time iv × 10 bid
  Inhibition Rate %: 43.08%
  Tumor Weight (g) X ± SD: 1.11 ± 0.08 g
[3]; HCT-15, 4 hr/24 hr × 2
  IC50: 199 ± 11.5 mg/L
[3]; HCT-15, 4 hr/24 hr × 3
  IC50: 165 ± 23.0 mg/L
[3]; HCT-15, 4 hr/24 hr
  IC50: 214 ± 15.8 mg/L
[3]; HCT-15, 4 hr
  IC50: 229 ± 26.9 mg/L
[3]; HCT-15, 8 hr
  IC50: 215 ± 34.1 mg/L
[3]; HCT-15, 12 hr
  IC50: 202 ± 21.8 mg/L
[3]; HCT-15, 48 hr
  IC50: 197 ± 12.7 mg/L
[3]; HCT-15, 72 hr
  IC50: 197 ± 22.3 mg/L
[4]; 12.5 mg/kg/time iv × 10 bid
  Inhibition Rate %: 38.32%
  Tumor Weight (g) X ± SD: 0.928 ± 0.07 g
[4]; 12.5 mg/kg/time iv × 10 bid, listed as β-Elemene
  Inhibition Rate %: 35.10%
[4]; 25 mg/kg/time iv × 10 bid
  Inhibition Rate %: 49.49%
  Tumor Weight (g) X ± SD: 0.772 ± 0.05 g
[4]; [18]
  Inhibition Rate %: 46.01%
[4]; 50 mg/kg/time iv × 10 bid
  Inhibition Rate %: 57.15%
  Tumor Weight (g) X ± SD: 0.655 ± 0.08 g
[4]; 50 mg/kg/time iv × 10 bid, listed as β-Elemene
  Inhibition Rate %: 54.20%
[5]
  expression of MDR1 mRNA or P-glycoprotein (P-gp): did not express MDR1 mRNA or P-glycoprotein (P-gp)
[6]; 7.5 mg/kg/time iv × 10 qd
  Average Life Span (day) X± SD: 20.2 ± 1.7 days
  Survival time as % of control (T/C): 132.84%
[6]; 7.5 mg/kg/time iv × 10 qd, listed as β-Elemene
  Survival time as % of control (T/C): 128.72%
[6]; 15 mg/kg/time iv × 10 qd
  Average Life Span (day) X± SD: 21.8 ± 1.9 days
  Survival time as % of control (T/C): 140.46%
[6]; 15 mg/kg/time iv × 10 qd, listed as β-Elemene
  Survival time as % of control (T/C): 139.31%
[6]; 30 mg/kg/time iv × 10 qd
  Average Life Span (day) X± SD: 23.3 ± 3.6 days
  Survival time as % of control (T/C): 150.37%
[6]; 30 mg/kg/time iv × 10 qd, listed as β-Elemene
  Survival time as % of control (T/C): 148.69%
[6]; 60 mg/kg/time iv × 10 qd
  Average Life Span (day) X± SD: 25.2 ± 3.1 days
  Survival time as % of control (T/C): 159.81%
[6]; 60 mg/kg/time iv × 10 qd, listed as β-Elemene
  Survival time as % of control (T/C): 160.36%
[7]; Caco-2, 4 hr/24 hr × 2
  IC50: 91.0 ± 7.55 mg/L
[7]; Caco-2, 4 hr/24 hr × 3
  IC50: 81.1 ± 10.3 mg/L
[7]; Caco-2, 4 hr/24 hr
  IC50: 108 ± 2.55 mg/L
[7]; Caco-2, 4 hr
  IC50: 171 ± 16.0 mg/L
[7]; Caco-2, 8 hr
  IC50: 167 ± 32.9 mg/L
[7]; Caco-2, 12 hr
  IC50: 104 ± 10.7 mg/L
[7]; Caco-2, 24 hr
  IC50: 107 ± 6.00 mg/L
[7]; Caco-2, 48 hr
  IC50: 91.0 ± 7.51 mg/L
[7]; Caco-2, 72 hr
  IC50: 89.1 ± 9.08 mg/L
[8]; H460, 24 h
  IC50: 89.5 mg/L
[8]; H460, 48 h
  IC50: 70.6 mg/L
[8]; H460, 72 h
  IC50: 68.2 mg/L
[9]
  IC50: 80 mg/L
[10]; 15 mg/kg it × 10 qd
  Inhibition Rate %: 37.83%
  Tumor Weight X ± SD: 1.15 ± 0.33
[10]; 30 mg/kg it × 10 qd
  Inhibition Rate %: 51.35%
  Tumor Weight X ± SD: 0.90 ± 0.17
[10]; 60 mg/kg it × 10 qd
  Inhibition Rate %: 63.24%
  Tumor Weight X ± SD: 0.68 ± 0.19
[11]; HCT-116, 4 hr/24 hr × 2
  IC50: 203 ± 23.1 mg/L
[11]; HCT-116, 4 hr/24 hr × 3
  IC50: 165 ± 22.0 mg/L
[11]; HCT-116, 4 hr/24 hr
  IC50: 230 ± 25.2 mg/L
[11]; HCT-116, 4 hr
  IC50: 363 ± 45.9 mg/L
[11]; HCT-116, 8 hr
  IC50: 206 ± 24.2 mg/L
[11]; HCT-116, 12 hr
  IC50: 201 ± 12.0 mg/L
[11]; HCT-116, 24 hr
  IC50: 184 ± 26.1 mg/L
[11]; HCT-116, 48 hr
  IC50: 163 ± 21.8 mg/L
[11]; HCT-116, 72 hr
  IC50: 157 ± 22.0 mg/L
[12]; 7.5 mg/kg/d i.p., 28 days
  changes, low dose group: No significant changes
[12]; 30 mg/kg/d i.p., 28 days, n=20
  mortality, high dose group: Six rats in high dose group died
[12]; 15 and 30 mg/kg/d i.p., 28 days
  ascites, medium and high dose groups: Ascites were developed in all animals
[12]; i.p., 28 days consecutively
  safe dose: 7.5 mg/kg/day
[13]; 12.5 mg/kg/time iv × 10 bid
  Inhibition Rate %: 30.92%
  Tumor Weight (g) X ± SD: 1.43 ± 0.12 g
[13]; 25 mg/kg/time iv × 10 bid
  Inhibition Rate %: 37.20%
  Tumor Weight (g) X ± SD: 1.30 ± 0.18 g
[13]; 50 mg/kg/time iv × 10 bid
  Inhibition Rate %: 45.89%
  Tumor Weight (g) X ± SD: 1.12 ± 0.19 g
[14]; 15 mg/kg it × 10 qd
  Inhibition Rate %: 32.00%
  Tumor Weight X ± SD: 1.53 ± 0.27
[14]; 30 mg/kg it × 10 qd
  Inhibition Rate %: 47.11%
  Tumor Weight X ± SD: 1.19 ± 0.55
[14]; 60 mg/kg it × 10 qd
  Inhibition Rate %: 60.89%
  Tumor Weight X ± SD: 0.88 ± 0.24
[15]; 12.5 mg/kg/time iv × 10 bid
  Inhibition Rate %: 27.95%
  Tumor Weight (g) X ± SD: 1.16 ± 0.12 g
[15]; 25 mg/kg/time iv × 10 bid
  Inhibition Rate %: 34.78%
  Tumor Weight (g) X ± SD: 1.05 ± 0.07 g
[15]; 50 mg/kg/time iv × 10 bid
  Inhibition Rate %: 46.58%
  Tumor Weight (g) X ± SD: 0.86 ± 0.12 g
[16]; 75 mg/kg/d i.v., 28 days
  side effects, high dose group: nausea, vomiting, appetite loss, weight loss, saliva dripping and other side effects
[16]; 15 and 30 mg/kg/d i.v., 28 days
  pathology changes, low and medium dose groups: No significant pathology changes related to drug
[16]; i.v., 28 days consecutively
  non-toxic dose: 15 mg/kg
[17]; 24 hr
  IC50 in human glioma cells: 95.52 mg/L
[17]; 48 hr
  IC50 in human glioma cells: 88.48 mg/L
[17]; 72 hr
  IC50 in human glioma cells: 93.34 mg/L
